Among the test systems are A549 NSCLC; HT29 colon; K-562 leukemia; MDA-MB-435; NCI-H522 lung; RPMI-8226 leukemia; SN12C renal; SNB-19 CNS; SW-620 colon; U251 CNS.
What all share (assay): inhibition of tumour cell growth, NCI panel, 48 h

The structures appear in SMILES notation. “And” between values parts separate entries of the source, which are not always exact repeats. Equal values may be shown once.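 Grown in 96-well plates, cells were treated for 48 hours with each compound at five concentrations. Insufficient inhibition: endpoint recorded as highest concentration tested. Here, GI50 denotes the concentration required for 50% inhibition of growth. At the TGI there is no net growth.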 Some results are limits rather than exact numbers.

Turning to `CC[N+](CC)=c1sc2c(s1)C(c1ccc(Cl)cc1)Oc1ccc(Cl)cc1-2` (stereo not drawn), the GI50 is 1.86 µM in the assay on A549 NSCLC; 2.2 µM in the assay on HT29 colon; 0.917 µM in the assay with K-562 leukemia; 2.04 µM with MDA-MB-435; 0.67 µM with NCI-H522 lung; 1.99 µM in the assay on RPMI-8226 leukemia. Further, the GI50 was 1.33 µM in the assay with SN12C renal, 0.487 µM in the assay with SNB-19 CNS, 1.08 µM in the assay with SW-620 colon and 0.374 µM with U251 CNS. The TGI in the assay on A549 NSCLC was determined as 6.9 µM; in the assay with HT29 colon, 5.07 µM; in the assay with K-562 leukemia, 10.3 µM; in the assay with MDA-MB-435, 4.66 µM; in the assay with NCI-H522 lung it was 2.89 µM; in the assay on RPMI-8226 leukemia, 7.5 µM. The TGI in the assay on SN12C renal was 3.33 µM; in the assay on SNB-19 CNS it was 1.84 µM; with SW-620 colon, 2.72 µM; in the assay on U251 CNS it was 1.37 µM.
Turning to `Cc1cnc(NC(=O)Nc2cc(Br)c(C)cc2OC[C@@H]2CNCCO2)cn1`, the GI50 in the assay with A549 NSCLC is 1.71 µM and 1.93 µM; in the assay on HT29 colon, 1.95 µM and 2.59 µM; in the assay with K-562 leukemia it was 0.466 µM and 0.419 µM; in the assay on MDA-MB-435, 0.459 µM and 0.378 µM; in the assay with NCI-H522 lung, 2.1 µM and 2.46 µM; in the assay on RPMI-8226 leukemia, 3.05 µM and 1.52 µM. Moreover, the GI50 was 3.8 µM and 2.5 µM with SN12C renal; 2.52 µM and 1.42 µM in the assay with SNB-19 CNS; 3.68 µM and 3.28 µM in the assay on SW-620 colon; 2.44 µM and 3.07 µM in the assay on U251 CNS. Besides, the TGI in the assay with A549 NSCLC was > 10 µM and 15.8 µM; in the assay with HT29 colon it was > 10 µM and 10.1 µM; in the assay with K-562 leukemia it was 6.27 µM and 2.5 µM; with MDA-MB-435, 3.58 µM and 2.43 µM; with NCI-H522 lung, > 10 µM and 11.5 µM; in the assay with RPMI-8226 leukemia, > 10 µM and 8.52 µM. Moreover, the TGI with SN12C renal is > 10 µM and 12.1 µM; with SNB-19 CNS, > 10 µM and 14.3 µM; with SW-620 colon, > 10 µM and 13.4 µM; with U251 CNS, > 10 µM and 13.9 µM.
For the compound `Cc1ccc(C)c2c1C(O)(C#Cc1ccccc1)c1ccccc1C2(O)C#Cc1ccccc1` (stereo not drawn), the GI50 in the assay on A549 NSCLC is 3.12 µM; in the assay with HT29 colon, 2.96 µM; in the assay with K-562 leukemia, 4.4 µM; in the assay with MDA-MB-435 it was 2.42 µM; in the assay with NCI-H522 lung it was 4.55 µM; in the assay with RPMI-8226 leukemia, 1.83 µM. Further, the GI50 in the assay on SN12C renal was 3.04 µM; in the assay on SNB-19 CNS, 3.74 µM; in the assay on SW-620 colon it was 3.03 µM; with U251 CNS, 2.76 µM. Also, the TGI is > 100 µM with A549 NSCLC; > 100 µM in the assay on HT29 colon; > 100 µM in the assay on K-562 leukemia; 16.2 µM in the assay with MDA-MB-435; > 100 µM with NCI-H522 lung; 89.2 µM in the assay with SN12C renal. The TGI in the assay with SNB-19 CNS, with SW-620 colon and in the assay on U251 CNS was > 100 µM in each case.
For `Cc1nc(SCC(=O)Nc2nc(-c3ccc(Cl)cc3)cs2)n(Nc2ccccc2)c1C`, the GI50 in the assay with A549 NSCLC was 2.9 µM; with HT29 colon, 3.78 µM; with K-562 leukemia it was 0.12 µM; in the assay on MDA-MB-435, 3.25 µM; in the assay on NCI-H522 lung, 2.54 µM; in the assay on RPMI-8226 leukemia it was 3.55 µM. For the same compound, the GI50 with SN12C renal was 2.38 µM; in the assay on SNB-19 CNS, 9.41 µM; in the assay with SW-620 colon it was 5.5 µM; in the assay with U251 CNS it was 3.13 µM. For the same compound, the TGI with A549 NSCLC was 11.6 µM; with HT29 colon it was 15.4 µM; in the assay with K-562 leukemia, > 100 µM; in the assay with MDA-MB-435 it was 21.8 µM; in the assay with NCI-H522 lung, 13.7 µM; with RPMI-8226 leukemia, > 100 µM. Moreover, the TGI with SN12C renal was 10.1 µM; with SNB-19 CNS, 24.6 µM; with SW-620 colon, 22.9 µM; in the assay with U251 CNS it was 13 µM.
Take `C#CCOc1cccc(-c2ncnc3cc(NC(=O)CCl)ccc23)c1`: the GI50 in the assay with A549 NSCLC was 0.451 µM; with HT29 colon it was 0.0502 µM; in the assay on K-562 leukemia, 0.0612 µM; in the assay on MDA-MB-435, 0.993 µM; in the assay on NCI-H522 lung it was 0.149 µM; with RPMI-8226 leukemia, 1.67 µM. The GI50 in the assay with SN12C renal is 0.115 µM; with SNB-19 CNS it was 1.14 µM; in the assay on SW-620 colon it was 0.0221 µM; with U251 CNS, 0.149 µM. For the same compound, the TGI came out at 3.96 µM in the assay with A549 NSCLC; 1.49 µM in the assay with HT29 colon; 2.92 µM in the assay with MDA-MB-435; 1.71 µM in the assay with NCI-H522 lung; 6.13 µM in the assay on RPMI-8226 leukemia; 1.41 µM in the assay with SN12C renal. The TGI with SNB-19 CNS was 4.86 µM; in the assay on SW-620 colon, 1.51 µM; with U251 CNS it was 2.76 µM.
Take `COc1cccc(-c2nc3sccn3c2-c2ccnc(NCCCNS(=O)(=O)c3cccc(F)c3)c2)c1`: the GI50 with A549 NSCLC was 2.99 µM; in the assay on HT29 colon, 3.01 µM; with K-562 leukemia, 1.77 µM; in the assay on MDA-MB-435, 2.29 µM; with NCI-H522 lung, 2.11 µM; in the assay with RPMI-8226 leukemia it was 1.29 µM. In addition, the GI50 in the assay with SN12C renal is 2.94 µM; with SNB-19 CNS, 5.6 µM; in the assay on SW-620 colon it was 3.16 µM; in the assay on U251 CNS, 4.77 µM. In addition, the TGI in the assay with A549 NSCLC was > 100 µM; in the assay with HT29 colon, 23.9 µM; in the assay on K-562 leukemia, > 100 µM; in the assay on MDA-MB-435, 5.71 µM; in the assay with NCI-H522 lung, 8.41 µM; in the assay on RPMI-8226 leukemia, 4.56 µM. The TGI with SN12C renal, in the assay on SNB-19 CNS, with SW-620 colon and in the assay on U251 CNS was > 100 µM each time.
`Cc1cc(=O)oc2cc(OC(=O)N(C)C)c(Cl)cc12`: the TGI with A549 NSCLC, in the assay on HT29 colon, with K-562 leukemia, with MDA-MB-435, in the assay with NCI-H522 lung and in the assay on RPMI-8226 leukemia was > 100 µM in each case. For the same compound, the TGI with SN12C renal, in the assay on SNB-19 CNS, in the assay on SW-620 colon and in the assay with U251 CNS was > 100 µM each time.
As to `COc1cc(OC)cc(N(CCNC(C)C)c2ccc3ncc(-c4cnn(C)c4)nc3c2)c1`, the GI50 in the assay on A549 NSCLC is 5.33 µM; in the assay on HT29 colon it was 3.72 µM; in the assay on K-562 leukemia, 2.11 µM; with MDA-MB-435, 5.73 µM; in the assay on NCI-H522 lung it was 7.82 µM; in the assay with RPMI-8226 leukemia, 7.3 µM. Also, the GI50 in the assay with SN12C renal was 3.96 µM; in the assay with SNB-19 CNS, 10.9 µM; with SW-620 colon, 6.38 µM; in the assay on U251 CNS it was 4.32 µM. The TGI is 19.1 µM in the assay on A549 NSCLC; 15.7 µM with HT29 colon; 10.8 µM with K-562 leukemia; 19 µM in the assay on MDA-MB-435; 23.4 µM with NCI-H522 lung; 33.1 µM in the assay on RPMI-8226 leukemia. Further, the TGI in the assay on SN12C renal worked out at 15.9 µM; in the assay on SNB-19 CNS, 24.9 µM; in the assay with SW-620 colon, 20.4 µM; with U251 CNS, 19.6 µM.
In the case of `Cc1nn(-c2nc3ccccc3[nH]2)c(N)c1-c1ccc(Cl)cc1`, the GI50 in the assay on A549 NSCLC is 2.9 µM; in the assay on HT29 colon, 4.35 µM; in the assay with K-562 leukemia, 3.55 µM; in the assay on MDA-MB-435, 4.6 µM; with NCI-H522 lung, 4.04 µM; in the assay with RPMI-8226 leukemia it was 4.37 µM. The GI50 was 5.52 µM in the assay on SN12C renal, 4.14 µM in the assay on SNB-19 CNS, 4.58 µM with SW-620 colon and 3.18 µM in the assay on U251 CNS. Also, the TGI in the assay with A549 NSCLC is > 100 µM; in the assay on HT29 colon, 67.8 µM; in the assay with K-562 leukemia, > 100 µM; in the assay with MDA-MB-435, > 100 µM; in the assay on NCI-H522 lung, > 100 µM; in the assay with RPMI-8226 leukemia, > 100 µM. The TGI in the assay with SN12C renal, in the assay on SNB-19 CNS, in the assay with SW-620 colon and in the assay with U251 CNS was > 100 µM each time.
In the case of `Cc1ccc(S(=O)(=O)NC(=O)C2C(=O)CC3(CCCCC3)CC2=O)cc1`, the TGI is > 100 µM in the assay with A549 NSCLC; 92.5 µM with HT29 colon; > 100 µM in the assay with K-562 leukemia; > 100 µM in the assay on MDA-MB-435; 59.9 µM in the assay on NCI-H522 lung; 51.5 µM in the assay on RPMI-8226 leukemia. The TGI in the assay with SN12C renal was 86.4 µM; in the assay with SNB-19 CNS, > 100 µM; in the assay on SW-620 colon it was 84.7 µM; with U251 CNS, > 100 µM.
Turning to `CCCC(=O)NC1=C(Cl)C(=O)c2ccccc2C1=O`, the TGI with A549 NSCLC stood at 16.9 µM; in the assay with HT29 colon, 27.7 µM; with K-562 leukemia it was 7.43 µM; in the assay on MDA-MB-435 it was 13.3 µM; in the assay on NCI-H522 lung, 2.37 µM; in the assay with RPMI-8226 leukemia, 6.19 µM. For the same compound, the TGI came to 31 µM with SN12C renal, 36.4 µM in the assay with SNB-19 CNS, 6.36 µM in the assay on SW-620 colon and 15.3 µM in the assay on U251 CNS.
On to `S=C(Nc1ccc(Br)cc1)Nc1ccc(Br)cc1`, for which the GI50 in the assay on A549 NSCLC is 5.8 µM; in the assay on HT29 colon it was 7.22 µM; with K-562 leukemia it was 3.62 µM; in the assay on MDA-MB-435, 6.04 µM; in the assay with NCI-H522 lung it was 2.92 µM; in the assay with RPMI-8226 leukemia, 4.05 µM. Moreover, the GI50 with SN12C renal was 9.72 µM; in the assay on SNB-19 CNS, 17.2 µM; with SW-620 colon it was 4.43 µM; in the assay on U251 CNS, 8.39 µM. In addition, the TGI in the assay on A549 NSCLC was > 100 µM; in the assay with HT29 colon, > 100 µM; in the assay with K-562 leukemia, > 100 µM; with MDA-MB-435, > 100 µM; with NCI-H522 lung it was 98.6 µM; in the assay on RPMI-8226 leukemia, > 100 µM. Moreover, the TGI in the assay with SN12C renal, with SNB-19 CNS, in the assay with SW-620 colon and in the assay with U251 CNS was > 100 µM each time.

(Values after PubChem BioAssay (NCI).)
